Assays:
[1] = test system: serum antibodies of cancer patients; assay: ELISA of cancer patient serum for reactivity with novopeptide; assay type: binding, human; details: serum from 23 cancer patients, standard ELISA (FIG. 8)
Text: Disclosed herein are embodiments of methods for performing novopeptide immunological screens. For example, disclosed herein are embodiments of methods for immunologically screening for the existence of a B cell response to a particular novopeptide comprising assaying for the presence of antibodies reactive to that novopeptide in serum samples from individuals having a type of cancerous cells predicted to express the novopeptide, and for the absence, or presence below a prespecified titer, of such reactive antibodies in serum obtained from one or more individuals not having such cancer. The presence in sera of antibodies reactive to a given novopeptide may be detected and quantified by an ELISA assay in which the novopeptide is adsorbed onto a solid surface, serum is applied, and antibodies remaining bound to the novopeptides after washing are detected. […] However, in at least some individuals, a strong immune response develops late in the tumor progression process. Therefore, serum antibody reactivity to a candidate novopeptide, even if detected in the serum of only one or a few individuals having the cancer type in question, is strong evidence that the novopeptide is expressed in that cancer type.
Novopeptides in the FS database in association with particular tumor cell types were identified. […]

SW480 tumor cells = assay: CTL assay (Cr release) with CTLs activated against novopeptide; assay type: cell-based, human; details: MHC-matched SW480 cells pulsed with peptide vs unpulsed (FIG. 9)
Text: These CTL's may then be tested for reactivity against each of (1) cancerous cells, and (2) non-cancerous cells, each having an MHC or HLA type matching that of the MHC or HLA for which the CTL's are specific.
This is a standard Cr release assay that anyone skilled in the art would be able to do.

[2] = test system: breast tumor driven by mutant rat Her2 gene; assay: Prophylactic immunization in BALB-neuT transgenic breast cancer model; assay type: in vivo; details: BALB-neuT mice, genetic prime/boost + KLH-peptide boost; vs non-treated and negative control (FIGS. 13a, 13b)
Text: From the candidate FS peptide sequences disclosed in Table 8 two candidates were selected for in vivo confirmation. The candidates chosen will be referred to herein as FS RBM (SEQ ID NO:232) and FS THAP2 (SEQ ID NO:238), these novopeptides having upstream in-frame portions that align with the mouse Rbm14 and Thap2 genes, respectively. […] The BALB-neuT mouse model is a transgenic mouse breast cancer model, in which all ten mammary glands of a female mouse will develop breast tumor around 20 weeks of age, driven by overexpression of a mutant rat Her2 gene.
FS RBM and FS THAP2 peptides were tested in vivo as candidate peptide components of a prophylactic anti-cancer vaccine. BALB-neuT mice were immunized at 4 to 6 weeks old (primary genetic immunization); 8 to 10 weeks old (boost genetic immunization) and 12 to 14 weeks old (boost peptide immunization). All genetic immunization had the same genetic adjuvant for each bullet for gene gun immunization: 250 ng mixed LTA-LTB/pCMVi and 2.5 μgCpG 2216. All mice received two shots at each ear by gene gun for each genetic immunization. At primary immunization, the vaccine group got two shots of bullets containing 100 ng (high dosage) or 20 ng (low dosage) mixed FS antigen plasmids per bullet; while negative group got two shots of 100 ng mixed empty plasmids for each shot. […]

[3] = test system: B16 F10 melanoma tumor cells; assay: Prophylactic genetic immunization (gene gun LEE + pGM-CSF), B16 F10 melanoma challenge; assay type: in vivo, C57BL6 mice
4T1 breast tumor cells = assay: Prophylactic genetic immunization, 4T1 breast tumor challenge; assay type: in vivo; details: Balb/c mice, 3.2 ng FS 1-78 LEE + 1 μg pGM-CSF, boost, challenge 1×10^4 4T1 cells; vs pGM-CSF alone and FS 6-21 controls (FIG. 5)
Text: Immunization with a single FS-novopeptide identified based on one tumor type may be immunoprotective against a different tumor type in a different mouse strain. Disclosed herein is a procedure for such immunization. Immunization with novopeptides common to multiple types of tumors can result in cross-protection, obviating the requirement that a patient must develop a tumor before a personalized vaccine can be formulated, prepared and administered. Balb/c mice were immunized in the same manner as the C57BL6 mice in Example 2 above, with 3.2 ng of FS 1-78 LEE+1 μg of pGM-CSF, and boosted with the same gene vaccine after 2 weeks. One week after the boost, mice were challenged with 1×10^4 4 T1 breast tumor cells. Seventeen days after 4T1 challenge, tumors started to grow.

B16 melanoma line = assay: Therapeutic gene vaccine encoding SMC1A FS, B16 melanoma mouse tumor model; assay type: in vivo, mice; details: B16 inoculated, gene vaccine one day later
Protocol: The FS was tested for therapeutic value as a vaccine in the mouse tumor model. The B16 melanoma line was inoculated into mice. One day later the mice were vaccinated with a gene vaccine encoding the FS.

4T1 tumor cells = assay: Prophylactic genetic immunization, BALB/C-4T1 mouse transplant breast tumor model; assay type: in vivo; details: three peptide components given together by genetic immunization at 7 and 13 weeks; challenge 5,000 4T1 cells; vs empty vector (FIG. 15)
Protocol: Primary genetic immunization was administered with the three peptide components (10 mice) or with empty vector (negative controls, 4 mice) at 7 weeks old and 13 weeks old. Three weeks after the last immunization, all mice were challenged with 5,000 4T1 tumor cells. Tumor size was measured each day after palpable tumors appeared. […] Error bars show standard error.

AVLLMCQLYQpwmckeyyrll* (AVLLMCQLYQPWMCKEYYRLL; Synthetic or recombinant sequence) [FS 6-21, frameshift novopeptide, 95 bp deletion]
antibody reactivity in sera of cancer patients [1]: one cancer patient in 23
CTL killing of tumor cells (SW480 tumor cells): able to kill MHC-matched tumor cells pulsed with FS 6-21 peptide

FS RBM: mouse novopeptide whose upstream in-frame portion aligns with the mouse Rbm14 gene (GRVIECDVVKGSCQDGEAVHWKSAPGGHRAGDPLTLRAVREGAGM; Synthetic or recombinant sequence)
inhibition of first tumor onset and tumor progression [2]: significant prophylactic protection

FS THAP2: mouse novopeptide whose upstream in-frame portion aligns with the mouse Thap2 gene (FDFCTHIKSLVTFGLFLRGAGCSPSSFLL; Synthetic or recombinant sequence)
inhibition of first tumor onset and tumor progression [2]: significant prophylactic protection

IPRMQPQASAnhcqllkvmva* (LLMCQCQLYQPWMCKEYYRLL; Synthetic or recombinant peptide) [FS 1-78, frameshift novopeptide from B16-F10, 396 bp deletion in a zinc finger protein gene]
tumor growth ([3]; C57BL6 mice, gene gun FS 1-78 LEE + 1 μg pGM-CSF, boost 2 weeks later, challenge 1×10^5 B16 F10 cells, vs empty LEE and no immunization (FIG. 4)): tumor growth was markedly delayed
tumor volume ([3]; highest dose (3.2 ng) of FS 1-78 LEE (FIG. 4)): tumor volume decreased after the already delayed rise
4T1 tumor growth (4T1 breast tumor cells): significantly delayed and reduced 4T1 tumor growth

NGSGCSGVYCHEEPQGEDSSV [FS SMC-1A, novopeptide from a frameshift of the SMC1A gene]
therapeutic effect on tumor size progression (B16 melanoma line; relative to control (FIG. 12a)): no therapeutic effect on tumor size progression
survival time (B16 melanoma line; relative to control (FIG. 12b)): did not show significant improvement in survival time

SEQ ID NO: 310: first peptide of Table 9, frameshift predicted from mouse microsatellite locus (TLCMEVMLRWNTRELGYLYLQLCFLNTHFLHTSQEEKLLTLGRFLTWTSRCGSFVIRPL; Synthetic or recombinant sequence)
prophylactic inhibition of tumor progression (tumor size) (4T1 tumor cells): effective in prophylactically inhibiting tumor progression

SEQ ID NO: 311: second peptide of Table 9, frameshift predicted from mouse microsatellite locus (ICMSPPLLWATLQAPETTSAACKASYRPEGLYL; Synthetic or recombinant sequence)
prophylactic inhibition of tumor progression (tumor size) (4T1 tumor cells): effective in prophylactically inhibiting tumor progression

SEQ ID NO: 312: third peptide of Table 9, frameshift predicted from mouse microsatellite locus (YFSCDKRCIKHYAGNKSLLTFSGY; Synthetic or recombinant sequence)
prophylactic inhibition of tumor progression (tumor size) (4T1 tumor cells): effective in prophylactically inhibiting tumor progression

Reference: patent US9732131B2, “Identification and use of novopeptides for the treatment of cancer” (Calviri Inc., priority 2006, dated 2017)
